Test results: patent publication US20090169643A1, “Composition for Enhancing Immune Function” (priority 2006, published 2009)

Assays:
[1] = system: spleen cell suspension of immunocompetent cells; test: Metabolic activity of mouse immunocompetent cells (WST-1 formazan, 48 h culture), Test Example 1; format: cell-based, Balb/c mice
Excerpt: Zinc was used in the form of zinc sulfate dissolved in distilled water. Spleens were aseptically harvested from ten-week-old female Balb/c mice, teased in RPMI1640 culture medium (GIBCO) supplemented with streptomycin and penicillin (SIGMA), and then passed through a #200 mesh screen to obtain spleen cell suspension of immunocompetent cells. After counting the cells in the spleen cell suspension with an automatic blood cell counter (Sysmex Corporation: type CDA-500), the suspension was adjusted to a concentration of 1×10^7 cells/ml in the above-mentioned RPMI1640 culture medium and plated in a volume of 50 μl per well into a 96-well culture plate. Concanavalin A (SIGMA), a cell-growth stimulating factor, was dissolved in the above-mentioned RPMI1640 culture medium, and 50 μl of the Concanavalin A solution was added to the cell suspension in each well to give a final concentration of 2.0 μg/ml. Additionally, zinc and nigerooligosaccharide were separately dissolved in the above-mentioned RPMI1640 culture medium. […] The formazan concentration was determined from absorbance at a measurement wavelength of 415 nm (reference wavelength of 630 nm) using a microplate reader (Corona Electric Co., Ltd.: Type MTP-32). The values in Table 1 represent absorbance at 415 nm as means±SD of triplicate wells. […]

[2] = system: spleen cell suspension of immunocompetent cells; test: Metabolic activity of mouse immunocompetent cells during prolonged culture (WST-1 formazan, 144 h), Test Example 2; format: cell-based, Balb/c mice; conditions: for absorbance at 415 nm (formazan, index of metabolic activity): nigerooligosaccharide 0 ng/ml, Concanavalin A 0.4 μl/ml, 144 hours, mean of triplicate to hexylicate wells
Experimental: In this Test Example, the effect of the combined use of nigerooligosaccharide and zinc on the metabolic activity of immunocompetent cells during prolonged culture was assessed using nigerooligosaccharide and zinc in the same manner as Test Example 1. Spleens were aseptically harvested from ten-week-old female Balb/c mice, teased in RPMI1640 culture medium (GIBCO) supplemented with streptomycin and penicillin (SIGMA), and then passed through a #200 mesh screen to obtain spleen cell suspension of immunocompetent cells. After counting the cells in the spleen cell suspension with an automatic blood cell counter (Sysmex Corporation: type CDA-500), the suspension was adjusted to a concentration of 1×10^7 cells/ml in the above-mentioned RPMI1640 culture medium and plated in a volume of 50 μl per well into a 96-well culture plate. Concanavalin A (SIGMA), a cell-growth stimulating factor, was dissolved in the above-mentioned RPMI1640 culture medium, and 50 μl of the Concanavalin A solution was added to the cell suspension in each well to give a final concentration of 0.4 μl/ml. Additionally, zinc and nigerooligosaccharide were separately dissolved in the above-mentioned RPMI1640 culture medium. 50 μl of the zinc solution was added to each well to give a final concentration of 0, 1 or 2 ng/ml, and similarly, 50 μl of the nigerooligosaccharide solution was added to each well to give a final concentration of 0 or 1000 ng/ml. Thus-prepared immunocompetent cells were cultured in an incubator with 5% CO2 at 37° C. for 144 hours. […] The formazan concentration was determined from absorbance at a measurement wavelength of 415 nm (reference wavelength of 630 nm) using a microplate reader (Corona Electric Co., Ltd.: Type MTP-32).
The values in Table 2 represent absorbance at 415 nm as means of triplicate to hexylicate wells.

[3] = system: human peripheral mononuclear cells; test: Metabolic activity of human peripheral mononuclear cells (WST-1 formazan, 48 h culture), Test Example 3; format: cell-based
Experimental: In the same manner as in Test Example 1, the synergic effect of nigerooligosaccharide and zinc on the metabolic activity of human peripheral mononuclear cells was assessed using nigerooligosaccharide and zinc. After 20 ml of blood collected from each healthy male adult was diluted 2-fold with calcium- and magnesium-free phosphate buffered saline (PBS), the diluted blood sample was overlaid onto 30 ml of a Ficoll-Paque PLUS (GE Healthcare Bio-Sciences) layer so gently as not to disturb the interface, followed by centrifugation at 400×g at 20° C. for 40 minutes. After the centrifugation, lymphocytes and monocytes present in the intermediate layer were carefully collected in a Pasteur pipette. The collected cell suspension was washed with 10-fold PBS twice. After the obtained mononuclear cells were counted with an automatic blood cell counter (Sysmex Corporation: type CDA-500), the suspension was adjusted to a concentration of 2×10^6 cells/ml in RPMI1640 culture medium supplemented with 10% fetal bovine serum, streptomycin and penicillin, and plated in a volume of 50 μl per well into a 96-well culture plate. […] The formazan concentration was determined from absorbance at a measurement wavelength of 415 nm (reference wavelength of 630 nm) using a microplate reader (Corona Electric Co., Ltd.: Type MTP-32).
The values in Table 3 represent absorbance at 415 nm as means±SD of triplicate wells. […]

SMILES: O=S(=O)([O-])[O-].[Zn+2] [zinc, zinc sulfate]
- metabolic activity of mouse immunocompetent cells (in words) ([1]; summary of Table 1, 48 hours culture): hardly raised the metabolic activity
- absorbance at 415 nm (formazan, index of metabolic activity) ([1]; zinc 1 ng/ml, nigerooligosaccharide 0 ng/ml, Concanavalin A 2.0 μg/ml, 48 hours, mean±SD of triplicate wells): 0.815 ± 0.013
- metabolic activity of mouse immunocompetent cells during prolonged culture (in words) ([2]; summary of Table 2, 144 hours culture, proportion 1:1000 or 1:500): hardly raised the metabolic activity
- absorbance at 415 nm (formazan, index of metabolic activity) ([2]; zinc 1 ng/ml): 0.793
- absorbance at 415 nm (formazan, index of metabolic activity) ([2]; zinc 2 ng/ml): 0.786
- metabolic activity of human immunocompetent cells (in words) ([3]; summary of Table 3, proportion 1:1000): hardly raised the metabolic activity
- absorbance at 415 nm (formazan, index of metabolic activity) ([3]; zinc 10 ng/ml, nigerooligosaccharide 0 μg/ml, Concanavalin A 2.0 μg/ml, 48 hours, mean±SD of triplicate wells): 0.348 ± 0.003
